“Also recorded” adds a separate entry of the source.
How the values were obtained:
[1] = tested on: GPC3-LPs-specific Th cell clones; test: Cytokine assay of GPC3-LP-specific Th cell clones (Bio-Plex); assay type: cell-based, human; conditions: clones from HD10; 24 h restimulation with cognate peptide-pulsed autologous PBMC
Protocol: GPC3-LPs-specific bulk Th cells or Th cell clones (3×10^4/well) were cultured in the presence of cognate peptides-pulsed autologous PBMC in 96-well culture plates. After 24 h, culture supernatants were collected and cytokine (IFN-gamma, TNF-αlfa, IL-2, GM-CSF, and MIP1beta) levels were measured using the Bio-Plea system (Bio-Rad) according to manufacturer's instructions.

[2] = tested on: GPC3-LPs-specific Th-cells; test: Natural processing and presentation of GPC3-LPs by DCs loaded with recombinant GPC3 protein, IFN-gamma ELISPOT; assay type: cell-based; conditions: in vitro; LP-specific Th cells from HD10, autologous DCs loaded with recombinant human GPC3 protein
Protocol: The immune response of Th cells to antigen-presenting cells (APCs) pulsed with peptides (10 micro-g/ml) or proteins (10 micro-g/ml) were assessed by IFN-gamma enzyme-linked immunospot (ELISPOT) assays (BD Biosciences) as described previously (Tomita Y, et al. Cancer Sci 2011; 102:697-705). Briefly, the frequency of peptide-specific CD4^+ T-cells producing IFN-gamma per 3×10^4 bulk CD4^+ T-cells upon stimulation with peptide-pulsed PBMCs (3×10^4), or 1×10^4 bulk CD4^+ T-cells upon stimulation with peptide-pulsed and HLA-DR-expres sing L-cells (5×10^4/well) or RM3 (5×10^4/well) was analyzed as described previously (Tosolini M, et al. Cancer Res 2011; 71:1263-71).
It was assessed whether DCs take up and process the GPC3 protein to stimulate GPC3-LPs-specific Th-cells that were generated by stimulation with LPs. DCs loaded with recombinant GPC3 protein were prepared and used as APCs in IFN-gamma ELISPOT assays (Tomita Y, et al. Cancer Sci 2011; 102:71-8; Harao M, et al., Int J Cancer 2008; 123:2616-25).

[3] = tested on: HLA-A2 (HHD) transgenic mice; test: In vivo cross-priming and induction of LP-specific CD4^+ T cells, ex vivo IFN-gamma ELISPOT; set-up: species or system mouse
Protocol: HLA-A2 (HHD) transgenic mice (Tgm) were kindly provided by Dr. F. A. Lemonnier (Pascolo S, et al., J Exp Med 1997; 185:2043-51) Mice were subcutaneously injected at the tail base with GPC3-LP2 solution or A2-GPC3-SP solution (HLA-A2 Tgm, 50 micro-g/mouse or 0.5 mM/100 micro-L) emulsified in incomplete Freund's adjuvant (IFA) at 7-days intervals. Equimolar (0.5 mM/100 micro-L) dose of SP and LP2 was used to compare their immunogenicity. IFA-PBS was used as negative control and assayed as previously described (Tomita Y, et al. Clin Cancer Res 2013; 19:4508-20; Tosolini M, et al. Cancer Res 2011; 71:1263-71; Tomita Y, et al., Oncoimmunology 2014; 3:e28100-15.).

Sequence: LTPQAFEFVGEFFTDVSLYILGSDI (Th1 epitope peptide) [GPC3-LP2]
- Cytokines (IFN-gamma, TNF-alpha, IL-2, GM-CSF and MIP1beta) produced by LP-specific T cell clones [1]: large amount
- Natural processing [2]: recognized autologous DCs; also recorded: positive
- IFN-gamma production by CD8^+ T-cells of vaccinated mice in response to BM-DCs pulsed with A2-GPC3-SP ([3]; HLA-A2 Tgm immunized twice, emulsified in IFA): produced IFN-gamma specifically
- IFN-gamma production by CD4^+ T-cells of immunized mice in response to BMDCs pulsed with GPC3-LP2 ([3]; HLA-A2 Tgm immunized with GPC3-LP2 in IFA): produced IFN-gamma specifically
- Number of A2-GPC3-SP-specific CTL as compared with mice immunized with A2-GPC3-SP ([3]; HLA-A2 Tgm, equimolar dose, emulsified in IFA): increased
- Restriction molecule ([3]; Tgm (transgenic mouse)): I-A^b
- Immune response ([3]; Tgm (transgenic mouse), mice MHC I-A^b): positive
